Measurements as given in US6869964B2, “Heterocyclicsulfonamide hepatitis C virus inhibitors” (Bristol-Myers Squibb Company, priority 2002, dated 2005).

Experiments:
[1] = target: T1, human sputum elastase (HS) (Homo sapiens, UniProt P08246); assay: Specificity assay, human sputum elastase; assay type: biochemical; settings: 2 hr enzyme-inhibitor pre-incubation
T1 construct: human sputum elastase (HS); from tissue; host or cells: human sputum (from the enzyme's name only)
T1 sequence (P08246 30-267): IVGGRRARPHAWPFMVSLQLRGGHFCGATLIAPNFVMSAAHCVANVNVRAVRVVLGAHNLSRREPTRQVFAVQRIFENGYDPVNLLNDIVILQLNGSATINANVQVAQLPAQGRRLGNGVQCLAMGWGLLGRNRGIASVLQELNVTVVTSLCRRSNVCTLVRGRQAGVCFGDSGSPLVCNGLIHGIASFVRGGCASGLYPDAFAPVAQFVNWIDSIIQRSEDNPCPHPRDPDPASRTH
Protocol: (§1) The specificities of compounds of the present invention were determined against a variety of serine proteases: human sputum elastase (HS), porcine pancreatic elastase (PPE) and human pancreatic chymotrypsin and one cysteine protease: human liver cathepsin B. In all cases a 96-well plate format protocol using colorimetric p-nitroaniline (pNA) substrate specific for each enzyme was used as described previously (CT 2633 application) with some modifications to the serine protease assays.
(§2) Each assay included a 2 hr enzyme-inhibitor pre-incubation at RT followed by addition of substrate and hydrolysis to ˜30% conversion as measured on a Spectramax Pro microplate reader. Compound concentrations varied from 100 to 0.4 μM depending on their potency.
(§3) The final conditions and protocol for the serine protease assays were: • 50 mM Tris(hydroxymethyl)aminomethane hydrochloride (Tris-HCl) pH8, • 0.5M Sodium Sulfate (Na2SO4), 50 mM NaCl, 0.1 mM EDTA, 3% DMSO, • 0.01% Tween-20 with: 133 μM succ-AAA-pNA and 20 nM HS or 8 nM PPE; 100 μM succ-AAPF-pNA and 250 pM Chymotrypsin.
(§4) The percentage of inhibition was calculated using the formula: [1−((UVinh−UVblank)/(UVctl−UVblank))]×100
(§5) A non-linear curve fit was applied to the inhibition-concentration data, and the 50% effective concentration (IC50) was calculated by the use of Excel Xl-fit software.

[2] = target: T2, HCV NS3/4A protease complex (J4L6S strain) (Hepatitis C virus genotype 1b, UniProt O92972, C1454S/C1711G); assay: Recombinant HCV NS3/4A protease complex FRET peptide assay, J4L6S strain; assay type: biochemical, HCV genotype 1b
T2 construct: HCV NS3/4A protease complex (amino acids 1027 to 1711); inferred from pET21b vector and Ni-NTA purification; made in house; host or cells: Escherichia coli BL21 (DE3), pET21b
T2 sequence (O92972 1658-1711, stated change not applied): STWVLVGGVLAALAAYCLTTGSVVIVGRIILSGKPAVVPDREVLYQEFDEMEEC
T2 sequence (O92972 1027-1711, looked up, stated change not applied): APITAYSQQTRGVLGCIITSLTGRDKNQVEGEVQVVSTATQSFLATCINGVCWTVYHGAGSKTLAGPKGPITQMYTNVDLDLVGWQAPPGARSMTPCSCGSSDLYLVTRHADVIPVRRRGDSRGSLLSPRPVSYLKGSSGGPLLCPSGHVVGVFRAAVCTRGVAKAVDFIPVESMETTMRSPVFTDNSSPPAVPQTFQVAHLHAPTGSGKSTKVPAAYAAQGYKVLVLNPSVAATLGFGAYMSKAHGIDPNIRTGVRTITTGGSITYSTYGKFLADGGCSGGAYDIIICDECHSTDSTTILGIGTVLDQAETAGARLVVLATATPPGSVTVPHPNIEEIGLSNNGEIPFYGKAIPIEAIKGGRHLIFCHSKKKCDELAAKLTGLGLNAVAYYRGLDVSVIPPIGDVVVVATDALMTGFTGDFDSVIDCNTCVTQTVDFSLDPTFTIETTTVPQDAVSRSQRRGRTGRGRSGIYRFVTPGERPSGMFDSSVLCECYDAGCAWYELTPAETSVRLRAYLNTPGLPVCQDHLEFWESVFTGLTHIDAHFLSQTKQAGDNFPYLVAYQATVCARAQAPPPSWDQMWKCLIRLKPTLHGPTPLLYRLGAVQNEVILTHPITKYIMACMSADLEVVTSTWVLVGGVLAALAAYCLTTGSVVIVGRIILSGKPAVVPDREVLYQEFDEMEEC
Text: Recombinant HCV NS3/4A Protease Complex FRET Peptide Assay
The purpose of this in vitro assay was to measure the inhibition of HCV NS3 protease complexes, derived from the BMS, H77C or J4l6S strains, as described below, by compounds of the present invention. This assay provides an indication of how effective compounds of the present invention would be in inhibiting HCV proteolytic activity.
Serum from an HCV-infected patient was obtained from Dr. T. Wright, San Francisco Hospital. An engineered full-length cDNA template of the HCV genome (BMS strain) was constructed from DNA fragments obtained by reverse transcription-PCR (RT-PCR) of serum RNA and using primers selected on the basis of homology between other genotype la strains. From the determination of the entire genome sequence, a genotype la was assigned to the HCV isolate according to the classification of Simmonds et al. (See P Simmonds, K A Rose, S Graham, S W Chan, F McOmish, B C Dow, E A Follett, P L Yap and H Marsden, J. Clin. Microbiol., 31(6), 1493-1503 (1993)). […]

[3] = tested on: human pancreatic chymotrypsin; assay: Specificity assay, human pancreatic chymotrypsin; assay type: biochemical; settings: 2 hr enzyme-inhibitor pre-incubation
Protocol: as §1, §2, §3, §4, §5

human liver cathepsin B = target: T3, human liver cathepsin B (Homo sapiens, UniProt P07858); assay: Specificity assay, human liver cathepsin B; assay type: biochemical; settings: 2 hr enzyme-inhibitor pre-incubation; solubility issues at 100 μM
T3 construct: one cysteine protease: human liver cathepsin B; from tissue; host or cells: human liver (from the enzyme's name only)
Protocol: as §1, §2, §4, §5

In the case of `C=CC1C[C@]1(NC(=O)[C@@H]1C[C@@H](Oc2cc(-c3ccccc3)nc3cc(OC)ccc23)CN1C(=O)[C@@H](NC(=O)OC(C)(C)C)C(C)(C)C)C(=O)NS(=O)(=O)c1cccs1` (stereo in doubt) [Compound 1, (1-{4-(7-Methoxy-2-phenylquinolin-4-yloxy)-2-[1-(thiophene-2-sulfonylaminocarbonyl)-2-vinyl-cyclopropylcarbamoyl]-pyrrolidine-1-carbonyl}-2,2-dimethylpropyl)carbamic acid tert-butyl ester], the IC50 [1] is reported as 35 µM, the IC50 [2] is reported as 0.0016 µM and the IC50 [3] is reported as > 50 µM. The IC50 (human liver cathepsin B) was > 50 µM.
